Read-outs that look alike come from different tables or passages of the source. Residues, ends and D or L forms follow the SMILES beside them.
Assays:
[1] = biological target: T1, neurokinin A (NKA) receptor (NK-2) (Mesocricetus auratus, UniProt P51144); assay: displacement of I125 labeled NKA from hamster urinary bladder membranes; format: binding
T1 construct: displace I125 labeled NKA from hamster urinary bladder; from tissue; host or cells: hamster urinary bladder (membranes in A1, chopped tissue in A4)
T1 sequence (P51144 1-384): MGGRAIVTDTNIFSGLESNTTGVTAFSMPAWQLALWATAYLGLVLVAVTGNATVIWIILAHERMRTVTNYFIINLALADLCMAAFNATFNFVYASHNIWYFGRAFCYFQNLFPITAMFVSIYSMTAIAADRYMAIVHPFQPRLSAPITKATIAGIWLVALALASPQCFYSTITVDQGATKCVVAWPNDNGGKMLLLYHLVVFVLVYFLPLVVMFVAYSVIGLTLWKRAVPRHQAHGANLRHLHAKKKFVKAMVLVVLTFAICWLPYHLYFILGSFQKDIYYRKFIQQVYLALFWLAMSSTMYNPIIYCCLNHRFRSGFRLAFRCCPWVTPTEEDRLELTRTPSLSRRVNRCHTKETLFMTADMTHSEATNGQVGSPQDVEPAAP
Description: The abscissa (x-axis) logarithmically indicates the concentration in nanomoles of agonist of antagonist of the neurokinin A (NKA) receptor. The ordinate (Y-axis) indicates the observed specific binding for each tested agonist or antagonist measured as a percentage of maximum specific binding.
Agonists tested were NKA and fragments of NKA consisting of the third to tenth (NKA(3-10)) amino acids and the fourth to tenth (NKA(4-10)) amino acids. Values are MEAN±S.E.M. of 6-12 experiments. IC50 values estimated graphically from 50% inhibition point.
Urinary bladders from several hamsters were pooled, minced, and homogenized in 50 mM TRIS-HCl (pH 7.4) containing 120 mM NaCl and 5 mM KCl at 4° C. and centrifuged at 48,000×g for 15 minutes. The pellet was resuspended for 30 minutes in 50 mM TRIS-HCl (pH 7.4) containing 10 mM EDTA and 300 mM KCl at 4° C. The suspension was centrifuged as above and the pellet was washed two times in plain 50 mM TRIS-HCl (pH 7.4) and centrifuged similarly. The tissue was then resuspended in incubation buffer and an aliquot (approximately 3-5 mg tissue) was added to each assay tube to commence the assay. The assay tubes contained incubation buffer consisting of 50 mM TRIS-HCl (pH 7.4), 0.02% BSA, 40 μg/ml bacitracin, 4 μg/ml chymostatin, 4 μg/ml leupeptin, 2 mM MnCl2, 0.1 nM ^125 iodohistidyl^1 -neurokinin A (Amersham Corp.), and concentrations of the title compounds or standards ranging from 0.03 nM to 100 μM. The assay was allowed to proceed to equilibrium for 120 min at room temperature. After this time, the contents of each tube was rapidly filtered over Whatman GF/B filters presoaked in 0.5% BSA and the filters were rapidly washed two times with ice-cold plain 50 mM TRIS-HCl (pH 7.4). Filter-bound radioactivity was quantitated in a gamma counter. Specific binding (maximum) was defined as the difference between binding in the presence and absence of 1 μM unlabeled neurokinin A. Competition of iodinated neurokinin A binding by test compounds or standards was expressed as a percentage of this maximum competition.
(§1) Values given indicate the concentration in nanomoles of antagonist to reach the IC50 of the neurokinin A (NKA) receptor. SKLKB82#3 represents a cloned NK-2 receptor cell line; the sample is prepared from the scraped cell pellet for assay as earlier described for the hamster urinary bladder preparations. NK-1 represents a substance P receptor preparation from rat salivary gland; receptors are prepared as earlier described for the hamster urinary bladder preparations. Blank spaces indicate compound has not been tested in that particular assay.

[2] = biological target: T2, NK-1 (substance P receptor) (Rattus norvegicus, UniProt P14600); assay: NK-1 substance P receptor preparation from rat salivary gland, binding
T2 construct: substance P receptor preparation from rat salivary gland; from tissue; host or cells: rat salivary gland
Experimental: as §1, with “preparations.” for “preparations. Blank spaces indicate compound has not been tested in that particular assay.”

[3] = biological target: T3, cloned NK-2 receptor (SKLKB82#3 cell line) (Bos taurus, UniProt P05363); assay: I125 NKA binding to SKLKB82#3 cloned NK-2 receptor cell line
T3 construct: expressed in transfected cells; host or cells: SKLKB82#3 cell line (scraped cell pellet)
T3 sequence (P05363 1-384): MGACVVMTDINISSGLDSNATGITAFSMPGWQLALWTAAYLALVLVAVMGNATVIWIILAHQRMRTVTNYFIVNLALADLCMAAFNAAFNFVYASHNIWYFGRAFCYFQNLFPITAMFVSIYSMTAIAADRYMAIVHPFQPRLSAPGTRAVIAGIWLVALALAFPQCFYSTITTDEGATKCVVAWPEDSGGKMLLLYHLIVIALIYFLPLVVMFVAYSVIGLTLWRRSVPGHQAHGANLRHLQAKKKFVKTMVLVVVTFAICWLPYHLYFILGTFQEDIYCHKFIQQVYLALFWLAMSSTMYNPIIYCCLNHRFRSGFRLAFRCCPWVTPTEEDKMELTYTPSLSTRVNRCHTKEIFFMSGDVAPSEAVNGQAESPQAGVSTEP
Experimental: as §1, with “preparations.” for “preparations. Blank spaces indicate compound has not been tested in that particular assay.”

[4] = cloned NK-2 receptor cell line, scraped cell pellet, read-out: SKLKB82#3 IC50

T2 sequence (P14600 whole entry): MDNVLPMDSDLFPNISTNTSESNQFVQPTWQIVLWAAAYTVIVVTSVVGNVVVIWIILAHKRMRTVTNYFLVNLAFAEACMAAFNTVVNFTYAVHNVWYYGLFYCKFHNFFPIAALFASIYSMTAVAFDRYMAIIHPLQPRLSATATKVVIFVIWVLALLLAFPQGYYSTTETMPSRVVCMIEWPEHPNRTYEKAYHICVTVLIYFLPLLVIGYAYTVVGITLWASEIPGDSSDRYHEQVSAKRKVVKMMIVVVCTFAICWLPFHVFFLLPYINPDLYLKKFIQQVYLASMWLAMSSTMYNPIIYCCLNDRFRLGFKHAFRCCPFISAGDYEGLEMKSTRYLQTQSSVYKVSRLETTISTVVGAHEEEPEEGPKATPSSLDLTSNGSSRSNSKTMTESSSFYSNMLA

Row | Structure (SMILES) | IC50 [1] [nM] | IC50 [2] [nM] | IC50 [3, 4] [nM] | IC50 [3] [nM]
1 | CSCC[C@H](NC[C@H](CC(C)C)NC(=O)CNC(=O)[C@@H](NC(=O)[C@H](Cc1ccccc1)NC(=O)[C@H](CO)NC(=O)[C@@H](N)CC(=O)O)C(C)C)C(N)=O [MDL 29,646, Asp--Ser--Phe--Val--Gly--Leu(.psi.(CH2 NH))Met--NH2] (HELM PEPTIDE1{D.S.F.V.G.[CSCC[C@H](NC[C@H](CC(C)C)N[*:1])C(N)=O]}$$$$V2.0) | 50 ± 5 | > 10000 | – | –
2 | CCN(C[C@H](CC(C)C)NC(=O)CNC(=O)[C@@H](NC(=O)[C@H](Cc1ccccc1)NC(=O)[C@H](CO)NC(=O)[C@@H](N)CC(=O)O)C(C)C)[C@@H](CC(C)C)C(N)=O [MDL 29,716, Asp-Ser-Phe-Val-Gly-Leu(.PSI.(CH2 NCH2 CH3))Leu-NH2] (HELM PEPTIDE1{D.S.F.V.G.[CCN(C[C@H](CC(C)C)N[*:1])[C@@H](CC(C)C)C(N)=O]}$$$$V2.0) | 257 ± 30 | – | 4730 ± 393 | –
3 | CC(C)C[C@@H](CN[C@@H](Cc1ccccc1)C(N)=O)NC(=O)CNC(=O)[C@@H](NC(=O)[C@H](Cc1ccccc1)NC(=O)[C@H](CO)NC(=O)[C@@H](N)CC(=O)O)C(C)C [MDL 101,382, Asp--Ser--Phe--Val--Gly--Leu(.psi.(CH2 NH))Phe--NH2] (HELM PEPTIDE1{D.S.F.V.G.[CC(C)C[C@@H](CN[C@@H](Cc1ccccc1)C(N)=O)N[*:1]]}$$$$V2.0) | 5 | – | – | 200
4 | CC(C)C[C@H](NC(=O)[C@H](CC(C)C)NC(=O)CNC(=O)[C@H](C(C)C)N(C)C[C@H](Cc1ccccc1)NC(=O)[C@H](CO)NC(=O)[C@@H](N)CC(=O)O)C(N)=O [MDL 29,678, Asp--Ser--Phe[.psi.(CH2 NCH3)]Val--Gly--Leu--Leu--NH2] (HELM PEPTIDE1{D.S.[CC(C)[C@@H](C(=O)[*:2])N(C)C[C@H](Cc1ccccc1)N[*:1]].G.L.L.[am]}$$$$V2.0) | > 10000 | – | – | –
5 | CC(C)C[C@H](NC(=O)[C@H](CC(C)C)NC(=O)CN(C)C[C@@H](NC(=O)[C@H](Cc1ccccc1)NC(=O)[C@H](CO)NC(=O)[C@@H](N)CC(=O)O)C(C)C)C(N)=O [MDL 29,712, Asp--Ser--Phe--Val[.psi.(CH2 NCH3)]Gly--Leu--Leu--NH2] (HELM PEPTIDE1{D.S.F.[CC(C)[C@@H](CN(C)CC(=O)[*:2])N[*:1]].L.L.[am]}$$$$V2.0) | > 5000 | – | – | –

Second part, led by results:

Row | IC50 [1] [nM] | IC50 [2] [nM] | IC50 [3, 4] [nM] | Structure (SMILES) | IC50 [3] [nM]
6 | > 5000 | > 100000 | – | CC(C)C[C@H](NC(=O)[C@H](CC(C)C)NC(=O)CNC[C@@H](NC(=O)[C@H](Cc1ccccc1)NC(=O)[C@H](CO)NC(=O)[C@@H](N)CC(=O)O)C(C)C)C(N)=O [MDL 29,882, Asp--Ser--Phe--Val[.psi.(CH2 NH)]Gly--Leu--Leu--NH2] | –
7 | 19 ± 3 | – | – | CC(C)C[C@@H](CN[C@@H](CC(C)C)C(N)=O)NC(=O)CCNC(=O)[C@@H](NC(=O)[C@H](Cc1ccccc1)NC(=O)[C@H](CO)NC(=O)[C@@H](N)CC(=O)O)C(C)C [MDL 102,500, Asp-Ser-Phe-Val-β-Ala-Leu(.PSI.(CH2 NH))Leu-NH2] (HELM PEPTIDE1{D.S.F.V.[bAla].[CC(C)C[C@@H](CN[C@@H](CC(C)C)C(N)=O)N[*:1]]}$$$$V2.0) | –
8 | 2000 | – | – | CC(C)C[C@H](NC(=O)[C@H](CC(C)C)NC(=O)CNC(=O)[C@@H](NC(=O)[C@H](Cc1ccccc1)NC(=O)[C@H](CO)NCCCC(=O)O)C(C)C)C(N)=O [MDL 101,905, Suc[.psi.(CH2 NH)]Ser--Phe--Val--Gly--Leu--Leu--NH2] (HELM PEPTIDE1{[O=C(O)CCCN[C@@H](CO)C(=O)[*:2]].F.V.G.L.L.[am]}$$$$V2.0) | –
9 | > 10000 | – | – | CC(C)C[C@H](NC(=O)[C@H](CC(C)C)N(C)CCNC(=O)[C@@H](NC(=O)[C@H](Cc1ccccc1)NC(=O)[C@H](CO)NC(=O)[C@@H](N)CC(=O)O)C(C)C)C(N)=O [MDL 102,369, Asp--Ser--Phe--Val--Gly[.psi.CH2 NCH3)]Leu--Leu--NH2] (HELM PEPTIDE1{D.S.F.V.[CC(C)C[C@@H](C(=O)[*:2])N(C)CCN[*:1]].L.[am]}$$$$V2.0) | –
10 | 103 ± 13 | – | – | CCCN(C[C@H](CC(C)C)NC(=O)CNC(=O)[C@@H](NC(=O)[C@H](Cc1ccccc1)NC(=O)[C@H](CO)NC(=O)[C@@H](N)CC(=O)O)C(C)C)[C@@H](CC(C)C)C(N)=O [MDL 102,863, Asp-Ser-Phe-Val-Gly-Leu(.PSI.(CH2 N(CH2)2 CH3))Leu-NH2] (HELM PEPTIDE1{D.S.F.V.G.[CCCN(C[C@H](CC(C)C)N[*:1])[C@@H](CC(C)C)C(N)=O]}$$$$V2.0) | –
11 | > 10000 | – | > 10000 | CC(C)C[C@@H](CO)NC[C@H](CC(C)C)NC(=O)CNC(=O)[C@@H](NC(=O)[C@H](Cc1ccccc1)NC(=O)[C@H](CO)NC(=O)[C@@H](N)CC(=O)O)C(C)C [MDL 102,678, Asp--Ser--Phe--Val--Gly--Leu[.psi.(CH2 NH)]Leu--CH2 OH] (HELM PEPTIDE1{D.S.F.V.G.[CC(C)C[C@@H](CO)NC[C@H](CC(C)C)N[*:1]]}$$$$V2.0) | –

From patent US5830863A, “Neurokinin A antagonists” (priority 1996, dated 1998)
